Reference: patent publication US8962662B2, “Antimicrobial compositions and methods of use thereof” (Byocoat Enterprises, Inc., priority 2011, dated 2015)
“Also recorded” adds a separate entry of the source.

Legend:
[1] = test system: Salmonella; test: Pathogenic testing for salmonella presence on treated poultry carcass samples after 7 day incubation; type: cell-based; settings: for salmonella prevalence rate (samples tested positive): after 7 day incubation
Description: (§1) The following solutions were prepared. A cetylpyridinium chloride (CPC) solution was prepared by combining 1.0 g of cetylpyridinium chloride (CAS No. 123-03-05) in 100 mL of water to form a nominal 1.0 wt % CPC test solution. An epsilon-polylysine (EPL) solution was prepared by combining 4.3 g epsilon-polylysine (CAS No. 25104-18-1) in water to form 100 mL of aqueous solution to form a nominal 4.3 wt % EPL test solution. The combination test solution was prepared by combining 1.0 g of cetylpyridinium chloride and 4.3 g epsilon-polylysine in water to form 100 mL of aqueous solution to form a standard concentration combination solution, and 3.7 g of this standard concentration solution was diluted up to 100 mL to form a combination test solution, which is diluted roughly 27-fold from the from the standard concentration solution.
(§2) The following test method was used. Whole poultry carcasses were collected from the processing line following evisceration and rinse. The carcasses were then treated with the CPC, EPL, or combined CPC+EPL products and dilution rates as listed above, using a Lillard spray application for 5 seconds. Following 10 seconds of dwell time, a 25 gram sample of the product was collected and immediately tested to establish a control sample set-point, and 325 grams of the same carcass were incubated at 37° C. for 168 hours (7 days). Following the incubation cycle, a second 25 gram sample was collected from the 325 gram control for testing evaluation of yeast and mold growth. A second 25 gram composite sample was collected from the same 325 gram control for pathogenic testing for salmonella presence. All samples were tested using AOAC accredited methods in an AOAC accredited API examined laboratory. Confirmation (split) samples were processed at ABC Research Laboratory.

[2] = test system: yeast and mold; test: Yeast and mold growth (CFU) on whole poultry carcasses after spray treatment, day 1 versus day 7; type: cell-based; settings: for log growth in yeast and mold over 7 days: day 7 minus day 1 log average
Description: as §1, §2

Molecule | seven-day samples tested positive for Salmonella ([1]; EPL (4.3%) only, 10 samples) | salmonella prevalence rate (samples tested positive) ([1]; EPL (4.3%) only) [%] | Salmonella, EPL Day 7 ([1]; ε-poly-L-lysine (4.3%), after 7 days at 37° C.) | log growth in yeast and mold over 7 days ([2]; EPL (4.3%) only) [log] | Log Avg, EPL Day 7 ([2]; average of 10 samples, ε-poly-L-lysine (4.3%), after 7 days at 37° C.) | Log Avg, EPL Day 1 ([2]; average of 10 samples, ε-poly-L-lysine (4.3%), day 1 set-point) | salmonella prevalence rate (samples tested positive) ([1]; CPC (1.0%) only) [%] | log growth in yeast and mold over 7 days ([2]; CPC (1.0%) only) [log] | Log Avg, CPC Day 7 ([2]; average of 10 samples, cetylpyridinium chloride (1.0%), after 7 days at 37° C.) | Log Avg, CPC Day 1 ([2]; average of 10 samples, cetylpyridinium chloride (1.0%), day 1 set-point)
ε-poly-L-lysine [EPL] | 4 of 10 | 40 | NEGATIVE; also recorded: POSITIVE | 3.677 | 6.97 | 3.293 | – | – | – | –
CCCCCCCCCCCCCCCC[n+]1ccccc1 [CPC, cetylpyridinium chloride] | – | – | – | – | – | – | 20 | 4.995 | 7.264 | 2.269
